Assay results taken from PMC5535261 (Journal of Medicinal Chemistry, 2017).
Converted amounts (≈) assume the structure as drawn.

Tests used:
[1] = system: P. berghei-infected female Swiss Webster mice; conditions: oral; for 50% curative dose (PD50): free bases, 4 daily doses, estimated from dose–efficacy study (Table 3); for mouse survival extended compared to vehicle-treated control animals: one or two daily doses of 4 mg/kg
physchem = conditions: pH 7.4
[2] = Mouse liver microsome stability; conditions: for T1/2 (min) no NADPH / half-life: mouse liver microsomes; for microsomal CLint / half-life: mouse, microsomes
[3] = system: W2 P. falciparum parasites; assay: Plasmodium falciparum growth inhibition assay; conditions: 12f vs 2f
[4] = system: similar models (P. berghei-infected mice); conditions: single dose 20 mg/kg; cited from earlier work
[5] = T1/2 (min), half-life when incubated with mouse liver microsomes

Row | Structure (SMILES) | T1/2 (min) no NADPH ([2]; no NADPH) | microsomal CLint [2] [µL/min/mg] | half-life [2, 5] [h] | further results
1 | CC(C)(N)CNC(=O)C[C@H]1CC[C@]2(CC1)OO[C@]1(O2)C2CC3CC(C2)CC1C3 [2a, arterolane, reference compound] | stable |  |  | 50% curative dose (PD50) [1]: ~4 mg kg^–1 day^–1; solubility kinetic (physchem): 433 µM (≈ 170 µg/mL)
2 | NC(=O)CNC(=O)C[C@H]1CC[C@]2(CC1)OO[C@]1(O2)C2CC3CC(C2)CC1C3 [2b, reference compound] | stable |  |  | 
3 | CC(C)(CN)CNC(=O)C[C@H]1CC[C@]2(CC1)OO[C@]1(O2)C2CC3CC(C2)CC1C3 [2d, reference compound] | stable |  |  | 
4 | NC1CCN(C(=O)C[C@H]2CC[C@]3(CC2)OO[C@]2(O3)C3CC4CC(C3)CC2C4)CC1 [2i, reference compound] | stable |  |  | 
5 | CC(C)(N)CNC(=O)C[C@@H]1CCC[C@]2(C1)OOC1(O2)C2CC3CC(C2)CC1C3 (stereo partly drawn) [12a] | stable | 4.1 | 2.82 | 50% curative dose (PD50) [1]: ~6 mg kg^–1 day^–1; solubility kinetic (physchem): 429 µM (≈ 168 µg/mL)
6 | NC(=O)CNC(=O)C[C@@H]1CCC[C@]2(C1)OOC1(O2)C2CC3CC(C2)CC1C3 (stereo partly drawn) [12b] | stable | 18.6 | 0.622 | 
7 | NCCNC(=O)C[C@@H]1CCC[C@]2(C1)OOC1(O2)C2CC3CC(C2)CC1C3 (stereo partly drawn) [12c] |  | 8.2 | 1.41 | mouse survival extended compared to vehicle-treated control animals [1]: 3 to 6 days; half-life ([2]; T1/2 (min) no NADPH, no NADPH): 2.27 h
8 | CC(C)(CN)CNC(=O)C[C@@H]1CCC[C@]2(C1)OOC1(O2)C2CC3CC(C2)CC1C3 (stereo partly drawn) [12d] | stable | 10.8 | 1.07 | 
9 | O=C(C[C@@H]1CCC[C@]2(C1)OOC1(O2)C2CC3CC(C2)CC1C3)N1CCOCC1 (stereo partly drawn) [12f] |  |  |  | fold more potent than cis-4″ regioisomer 2f (EC50, W2) [3]: 3 fold
10 | O=C(C[C@@H]1CCC[C@]2(C1)OOC1(O2)C2CC3CC(C2)CC1C3)N1CCNCC1 (stereo partly drawn) [12g] | stable | 27.2 | 0.425 | 
11 | NC1CCN(C(=O)C[C@@H]2CCC[C@]3(C2)OOC2(O3)C3CC4CC(C3)CC2C4)CC1 (stereo partly drawn) [12i] | stable | 8.2 | 1.41 | mouse survival extended compared to vehicle-treated control animals [1]: 3 to 6 days
12 | c1cc([C@H]2CC[C@]3(CC2)OO[C@]2(O3)C3CC4CC(C3)CC2C4)ccc1OCCN1CCOCC1 [compound 3, artefenomel] |  |  |  | single-dose efficacy [4]: single-dose cures
